Data as given in ChEMBL document CHEMBL1201862, “PubChem BioAssay data set” (2004).
One block for each compound: values may come before it. The source made the active and inactive calls.

Key:
[1] = Luminescence-based cell-based high throughput dose response assay to identify activators of the DAF-12 from the parasite S. stercoralis (ssDAF-12).; assay type: functional
[2] = target: T1, Oxysterols receptor LXR-beta (Homo sapiens, UniProt P55055); experiment: LXR agonists, Gal4 luciferase reporter, dose response, counter-screen for ssDAF-12 agonist project, cell-based, luminescence, HEK293, S. stercoralis campaign (AID 720737); assay type: functional; conditions: read-out: IC50 (the source's name)
T1 sequence (P55055 whole entry): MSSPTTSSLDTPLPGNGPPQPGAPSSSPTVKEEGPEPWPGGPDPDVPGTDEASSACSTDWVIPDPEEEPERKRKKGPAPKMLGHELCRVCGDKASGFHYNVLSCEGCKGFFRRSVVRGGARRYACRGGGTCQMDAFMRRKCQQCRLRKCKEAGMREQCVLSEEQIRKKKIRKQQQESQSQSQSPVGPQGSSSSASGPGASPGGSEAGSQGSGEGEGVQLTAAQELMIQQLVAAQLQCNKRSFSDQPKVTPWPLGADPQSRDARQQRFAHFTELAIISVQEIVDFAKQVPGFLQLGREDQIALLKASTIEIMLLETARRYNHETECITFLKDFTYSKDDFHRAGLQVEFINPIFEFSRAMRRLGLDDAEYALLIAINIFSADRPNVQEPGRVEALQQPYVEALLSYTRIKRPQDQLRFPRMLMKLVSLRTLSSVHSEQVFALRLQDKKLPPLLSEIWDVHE

[3] = target: T1, Oxysterols receptor LXR-beta; assay type: functional, cell-based
Cytochrome P450 2C9 = Cytochrome P450 2C9 (Homo sapiens, UniProt P11712); conditions: Potency
Cytochrome P450 2C9, sequence (P11712 whole entry): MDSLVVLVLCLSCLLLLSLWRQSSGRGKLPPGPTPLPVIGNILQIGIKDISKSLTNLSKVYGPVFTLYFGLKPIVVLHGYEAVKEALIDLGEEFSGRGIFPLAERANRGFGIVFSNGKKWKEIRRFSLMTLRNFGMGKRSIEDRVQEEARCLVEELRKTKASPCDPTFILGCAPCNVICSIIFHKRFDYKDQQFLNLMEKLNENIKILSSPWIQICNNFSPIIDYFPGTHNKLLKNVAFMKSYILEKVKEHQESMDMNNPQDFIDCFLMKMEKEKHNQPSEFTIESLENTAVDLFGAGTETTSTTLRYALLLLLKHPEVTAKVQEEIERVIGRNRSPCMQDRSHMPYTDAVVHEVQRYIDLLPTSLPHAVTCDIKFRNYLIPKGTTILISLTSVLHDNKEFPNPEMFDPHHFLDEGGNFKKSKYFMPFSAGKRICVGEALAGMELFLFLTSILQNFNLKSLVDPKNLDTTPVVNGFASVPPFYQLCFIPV

[4] = target: Peroxisome proliferator-activated receptor gamma/Nuclear receptor coactivator 2 (Homo sapiens, UniProt P37231); assay type: functional;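 further: agonist potency for raising coactivator recruitment to the receptor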
[5] = target: Peroxisome proliferator-activated receptor gamma/Nuclear receptor coactivator 1 (Homo sapiens, UniProt P37231); assay type: functional;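 further: agonist potency as compounds enhance coactivator SRC-1 recruitment to PPARgamma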
Peroxisome proliferator-activated receptor gamma/Nuclear receptor coactivator 1, sequence (P37231 whole entry): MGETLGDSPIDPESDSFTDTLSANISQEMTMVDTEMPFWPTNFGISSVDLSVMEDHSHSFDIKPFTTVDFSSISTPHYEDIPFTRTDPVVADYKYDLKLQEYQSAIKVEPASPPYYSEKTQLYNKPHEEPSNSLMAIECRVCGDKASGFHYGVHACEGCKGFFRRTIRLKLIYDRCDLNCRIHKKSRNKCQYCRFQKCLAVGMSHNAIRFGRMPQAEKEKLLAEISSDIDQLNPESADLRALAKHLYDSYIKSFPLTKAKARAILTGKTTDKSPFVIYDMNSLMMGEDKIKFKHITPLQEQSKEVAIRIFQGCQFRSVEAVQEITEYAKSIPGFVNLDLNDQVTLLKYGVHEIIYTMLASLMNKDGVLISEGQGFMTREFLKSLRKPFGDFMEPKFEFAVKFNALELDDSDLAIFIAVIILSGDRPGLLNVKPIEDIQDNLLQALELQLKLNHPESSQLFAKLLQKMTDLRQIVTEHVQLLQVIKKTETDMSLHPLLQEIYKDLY
Peroxisome proliferator-activated receptor gamma/Nuclear receptor coactivator 1, sequence (Q15788 whole entry, further chain): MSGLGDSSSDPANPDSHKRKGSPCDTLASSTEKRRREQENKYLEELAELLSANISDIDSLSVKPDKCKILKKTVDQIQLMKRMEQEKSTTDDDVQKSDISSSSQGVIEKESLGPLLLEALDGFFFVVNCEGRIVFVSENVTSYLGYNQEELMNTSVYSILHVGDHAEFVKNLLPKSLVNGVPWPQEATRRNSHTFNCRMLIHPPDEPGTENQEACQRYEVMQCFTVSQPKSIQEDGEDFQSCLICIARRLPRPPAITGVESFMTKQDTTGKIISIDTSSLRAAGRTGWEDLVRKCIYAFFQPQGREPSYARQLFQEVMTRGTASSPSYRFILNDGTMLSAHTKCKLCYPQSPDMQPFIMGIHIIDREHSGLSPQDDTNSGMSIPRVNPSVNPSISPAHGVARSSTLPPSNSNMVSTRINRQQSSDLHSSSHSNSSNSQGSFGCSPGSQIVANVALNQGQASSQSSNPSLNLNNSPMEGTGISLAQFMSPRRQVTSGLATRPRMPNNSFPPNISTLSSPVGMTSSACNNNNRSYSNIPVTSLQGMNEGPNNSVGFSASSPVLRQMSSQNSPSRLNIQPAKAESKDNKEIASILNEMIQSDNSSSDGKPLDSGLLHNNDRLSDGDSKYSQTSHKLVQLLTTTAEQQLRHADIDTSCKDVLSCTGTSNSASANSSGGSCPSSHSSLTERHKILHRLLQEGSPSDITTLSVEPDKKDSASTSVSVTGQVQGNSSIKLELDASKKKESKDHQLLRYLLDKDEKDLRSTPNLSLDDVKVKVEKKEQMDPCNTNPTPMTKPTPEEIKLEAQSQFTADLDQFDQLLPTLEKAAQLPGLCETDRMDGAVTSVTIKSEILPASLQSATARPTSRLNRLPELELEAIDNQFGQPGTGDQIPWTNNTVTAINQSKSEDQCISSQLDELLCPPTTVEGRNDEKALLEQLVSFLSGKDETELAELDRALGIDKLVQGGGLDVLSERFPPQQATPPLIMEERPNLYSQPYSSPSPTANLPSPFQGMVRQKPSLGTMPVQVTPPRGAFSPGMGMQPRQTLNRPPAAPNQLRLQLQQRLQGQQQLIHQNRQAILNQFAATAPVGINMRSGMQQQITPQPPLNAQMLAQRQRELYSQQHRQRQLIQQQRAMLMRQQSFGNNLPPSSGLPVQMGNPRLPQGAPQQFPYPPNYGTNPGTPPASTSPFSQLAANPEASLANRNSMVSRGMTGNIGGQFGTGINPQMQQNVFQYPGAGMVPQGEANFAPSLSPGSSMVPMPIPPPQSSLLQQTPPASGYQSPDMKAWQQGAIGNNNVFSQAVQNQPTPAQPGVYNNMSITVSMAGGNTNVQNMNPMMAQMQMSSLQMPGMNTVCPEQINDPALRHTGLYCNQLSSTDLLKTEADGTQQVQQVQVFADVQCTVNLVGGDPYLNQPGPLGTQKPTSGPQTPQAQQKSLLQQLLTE

[6] = target: Peroxisome proliferator-activated receptor gamma/Nuclear receptor coactivator 3 (Homo sapiens, UniProt P37231); assay type: functional;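 further: agonist potency for raising coactivator recruitment to the receptor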
Peroxisome proliferator-activated receptor gamma/Nuclear receptor coactivator 3, sequence (P37231 whole entry): as the sequence (P37231 whole entry) above
Peroxisome proliferator-activated receptor gamma/Nuclear receptor coactivator 3, sequence (Q9Y6Q9 whole entry, further chain): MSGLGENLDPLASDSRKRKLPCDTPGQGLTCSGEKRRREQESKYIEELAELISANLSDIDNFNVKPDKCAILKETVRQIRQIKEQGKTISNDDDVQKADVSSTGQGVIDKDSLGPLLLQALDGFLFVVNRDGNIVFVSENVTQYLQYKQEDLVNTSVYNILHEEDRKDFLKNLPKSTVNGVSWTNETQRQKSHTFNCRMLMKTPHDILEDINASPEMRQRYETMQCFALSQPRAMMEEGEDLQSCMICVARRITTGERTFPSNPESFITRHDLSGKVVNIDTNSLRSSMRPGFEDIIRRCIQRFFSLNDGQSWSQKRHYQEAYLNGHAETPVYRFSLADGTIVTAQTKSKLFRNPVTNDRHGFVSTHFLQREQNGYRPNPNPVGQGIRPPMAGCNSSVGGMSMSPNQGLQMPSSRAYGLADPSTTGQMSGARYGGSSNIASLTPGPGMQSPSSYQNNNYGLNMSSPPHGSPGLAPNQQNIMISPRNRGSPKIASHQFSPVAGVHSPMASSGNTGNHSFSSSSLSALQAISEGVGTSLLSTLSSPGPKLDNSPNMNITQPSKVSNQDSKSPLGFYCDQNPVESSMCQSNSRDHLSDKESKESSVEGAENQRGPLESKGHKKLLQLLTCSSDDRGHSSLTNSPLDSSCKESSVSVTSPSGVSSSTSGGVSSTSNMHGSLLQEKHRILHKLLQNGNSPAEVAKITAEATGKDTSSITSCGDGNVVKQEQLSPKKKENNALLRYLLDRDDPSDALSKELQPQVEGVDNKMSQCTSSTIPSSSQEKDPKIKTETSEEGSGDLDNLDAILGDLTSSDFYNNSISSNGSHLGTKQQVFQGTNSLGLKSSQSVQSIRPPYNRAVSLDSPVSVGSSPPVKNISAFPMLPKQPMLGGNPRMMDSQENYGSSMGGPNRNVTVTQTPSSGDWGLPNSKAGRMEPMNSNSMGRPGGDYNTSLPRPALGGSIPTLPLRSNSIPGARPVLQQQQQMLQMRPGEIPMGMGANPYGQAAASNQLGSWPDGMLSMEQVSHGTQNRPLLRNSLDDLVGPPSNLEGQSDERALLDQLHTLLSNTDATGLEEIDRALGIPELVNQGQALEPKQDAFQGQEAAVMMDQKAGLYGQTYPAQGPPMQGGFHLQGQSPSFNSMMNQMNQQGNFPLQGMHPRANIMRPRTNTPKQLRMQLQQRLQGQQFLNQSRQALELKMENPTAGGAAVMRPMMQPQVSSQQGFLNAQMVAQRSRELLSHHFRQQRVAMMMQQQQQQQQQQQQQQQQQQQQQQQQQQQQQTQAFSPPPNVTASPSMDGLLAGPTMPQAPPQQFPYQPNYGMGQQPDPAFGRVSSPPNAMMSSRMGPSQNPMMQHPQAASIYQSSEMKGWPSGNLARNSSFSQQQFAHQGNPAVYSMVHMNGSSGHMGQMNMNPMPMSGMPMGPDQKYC

Cytochrome P450 3A4 = Cytochrome P450 3A4 (Homo sapiens, UniProt P08684); conditions: Potency;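 further: confirmatory qHTS run detecting inhibitors and substrates of CYP3A4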
Estrogen receptor = target: T2, Estrogen receptor (Homo sapiens, UniProt P03372);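 further: potency for inhibiting coactivator peptide recruitment to the receptor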
T2 sequence (P03372 whole entry): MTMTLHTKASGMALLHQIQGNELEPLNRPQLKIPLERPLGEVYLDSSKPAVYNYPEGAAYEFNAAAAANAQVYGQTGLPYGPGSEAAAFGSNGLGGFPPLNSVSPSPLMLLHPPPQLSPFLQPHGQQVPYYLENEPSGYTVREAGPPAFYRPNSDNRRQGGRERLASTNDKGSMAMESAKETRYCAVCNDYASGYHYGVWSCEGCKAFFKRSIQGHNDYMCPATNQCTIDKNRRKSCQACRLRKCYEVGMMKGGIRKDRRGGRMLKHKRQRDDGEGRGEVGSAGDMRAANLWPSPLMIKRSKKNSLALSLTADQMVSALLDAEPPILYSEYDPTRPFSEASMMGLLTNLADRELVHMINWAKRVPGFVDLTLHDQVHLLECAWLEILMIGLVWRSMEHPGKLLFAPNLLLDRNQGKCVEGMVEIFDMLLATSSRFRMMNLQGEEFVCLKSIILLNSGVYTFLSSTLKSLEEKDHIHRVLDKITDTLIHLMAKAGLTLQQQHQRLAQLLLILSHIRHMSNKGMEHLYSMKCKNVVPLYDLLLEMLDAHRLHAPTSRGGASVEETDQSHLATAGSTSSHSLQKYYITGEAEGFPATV

Estrogen receptor beta = Estrogen receptor beta (Homo sapiens, UniProt Q92731);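 further: recombinant ER-beta bound to coactivator SRC1 peptide in presence of estradiol agonist; inhibitors block coactivator peptide binding and lower the FRET signal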
Paired box protein Pax-8 = Paired box protein Pax-8 (Homo sapiens, UniProt Q06710); experiment: PAX8 transcriptional activity inhibition in RMG-I – RMG-I cells, luciferase, cherry-pick, dose response (AID 687027); assay type: functional, cell-based;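 further: luciferase reporter driven by Pax8 target thyroperoxidase promoter measured by SteadyGlo luminescence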
[7] = OVCAR-3 cell viability loss – plate reader, dry powder samples, PAX8 inhibitor project, dose response (AID 743044); assay type: functional, cell-based
[8] = IGROV1 cell killing – plate reader, dry powder samples, PAX8 inhibitor project, dose response (AID 743043); assay type: functional, cell-based; conditions: IGROV-1
[9] = general cell-killing toxicity readout – plate reader, dry powder samples, cytotoxicity control for PAX8 inhibitor project, dose response (AID 743021); assay type: functional, cell-based
[10] = OVCAR8 cell viability loss – plate reader, dry powder samples, PAX8 project, dose response (AID 743197); assay type: functional, cell-based; conditions: OVCAR-8
[11] = viability loss in HepG2 liver cells – cell-based, ATP luminescence, cherry-pick, set 6, cytotoxicity control, dose response (AID 1053125); assay type: functional
Cytochrome P450 2D6 = Cytochrome P450 2D6 (Homo sapiens, UniProt P10635);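 further: CYP2D6 member of a cytochrome P450 panel assay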
Cytochrome P450 2D6, sequence (P10635 whole entry): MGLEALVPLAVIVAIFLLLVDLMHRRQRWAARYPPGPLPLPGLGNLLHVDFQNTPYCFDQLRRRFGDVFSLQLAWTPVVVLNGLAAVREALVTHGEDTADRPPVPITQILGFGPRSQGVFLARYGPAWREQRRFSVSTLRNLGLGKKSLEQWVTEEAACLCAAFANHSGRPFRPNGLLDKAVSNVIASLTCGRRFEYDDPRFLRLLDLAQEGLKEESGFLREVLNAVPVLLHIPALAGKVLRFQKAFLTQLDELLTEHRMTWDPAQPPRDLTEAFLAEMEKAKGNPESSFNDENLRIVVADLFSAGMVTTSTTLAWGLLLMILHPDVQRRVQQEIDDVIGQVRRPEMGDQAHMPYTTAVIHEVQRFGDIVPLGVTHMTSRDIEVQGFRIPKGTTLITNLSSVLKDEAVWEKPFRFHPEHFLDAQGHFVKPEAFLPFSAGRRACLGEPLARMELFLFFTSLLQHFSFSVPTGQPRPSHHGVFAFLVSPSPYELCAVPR

[12] = HGIII-sPLA2 enzyme inhibition potency – biochemical, QFRET, IC50, dose response (AID 743457);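 further: green fluorescence rise as the enzyme cleaves BODIPY PC-A2 in liposomes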

SMILES: Cc1c(C(=O)Nc2nccs2)oc2ccccc12
- IC50 [1]: > 67.6 µM (inactive)
- EC50 [2]: > 67.6 µM (inactive)
- EC50 [3]: > 67.6 µM (inactive)

SMILES: CC(C)(C)c1cc(O)ccc1O [E319]
- AC50 (Cytochrome P450 2C9): 7.94 µM (inconclusive)

SMILES: C[C@H](CO)N1C[C@H](C)[C@@H](CN(C)S(=O)(=O)c2cccs2)OCCCC[C@H](C)Oc2ccc(NS(=O)(=O)c3ccc(Cl)cc3)cc2C1=O
- AC50 (Paired box protein Pax-8): 3.86 µM (active)
- AC50 [7]: 29.4 µM (active)
- AC50 [8]: 66.4 µM (active)
- AC50 [9]: 54.6 µM (active)
- AC50 [10]: > 70 µM (inactive)

SMILES: CCOc1ccc(-n2c(SCC(=O)Nc3nccs3)nnc2-c2ccoc2C)cc1
- AC50 [11]: > 52 µM (inactive)

SMILES: O=C(CSc1nnc2c3ccccc3c3ccccc3c2n1)Nc1ccccc1
- EC50 [4]: 28.6 µM (not active)
- EC50 [5]: 31.7 µM (not active)
- EC50 [6]: 39.1 µM (not active)
- AC50 (Cytochrome P450 2D6): 7.94 µM (inconclusive)

More lines, now with the values ahead:

- EC50 [4]: > 79.4 µM (not active)
- EC50 [5]: > 79.4 µM (not active)
- EC50 [6]: > 79.4 µM (not active)
SMILES: COc1ccc(NC(=O)COC(=O)c2cccc(S(=O)(=O)N(C)C)c2)cc1

- AC50 (Cytochrome P450 3A4): 3.98 µM (inconclusive)
- AC50 (Cytochrome P450 2C9): 6.31 µM (inconclusive)
SMILES: CCCCCCCC1=CC2=CC(=O)C(C)(OC(C)=O)C(=O)C2=CN1CCc1ccccc1 (configuration not stated)

- IC50 (Estrogen receptor): > 50 µM (not active)
- IC50 (Estrogen receptor beta): > 50 µM (not active)
SMILES: O=C(c1cc(-c2ccco2)on1)N1CCCc2ccccc21

- IC50 [12]: > 122 µM (inactive)
SMILES: CCCCOc1ccc(CSC(=N)N)cc1Cl
